Where “and” joins values, the source holds several entries; their conditions need not be identical. Equal values may be shown once.
How the values were obtained:
MCL-1 = MCL-1 (Homo sapiens, UniProt Q07820); test: Fluorescence polarization (FP) with Fluorescein-PUMA, MCL-1; format: binding
BCL-2 = BCL-2 (Homo sapiens, UniProt P10415); test: Isothermal titration calorimetry (ITC), BCL-2; conditions: binding to BCL-2
Experimental: The protein was dialyzed prior to use in 2 L of 25 mM HEPES, 150 mM NaCl, 5% glycerol (v/v), 0.5% MTG (v/v) at pH 7.4 for 3 hours at room temperature. The protein was dialyzed using a 3.5 K MWCO Slide-A-Lyzer™ cassette. The protein solution was recovered, spin-filtered through a […] frit. The filtered protein was quantified by UV absorbance at 280 nm using an extinction coefficient of 36440 M^-1cm^-1. 500 ml of dialysis buffer was retained (remainder used to rinse out SCHOT bottle) and degassed for a minimum of 30 mins under vacuum with constant stirring. […] The solutions were carefully matched to ensure same solvent and buffer conditions were present in both syringe and cell (this is to minimize heat of dilution effects). The final solution was the dialysis buffer plus 1% DMSO and 0.05% P20. The experiment was performed over 13 injections with stirring at 1000 rpm, gain setting low and at 25° C. Pure water was used in the reference cell. The first injection was 0.5 μl with a duration of 1 second with a gap of 150 seconds until the further 12 injections of 3.05 μl with a duration 6.1 seconds and a 240 second interval between injections. Data was analyzed using the vendor supplied software, PEAQ-ITC Analysis Software. The data model used was the single site model. The data shown is the average of 2 or 3 independent experiments.

RS4;11 cell line = test: CellTiter-Glo cell viability, RS4;11; format: cell-based; conditions: Homo sapiens, 72 h of treatment
Experimental: (§1) Cells were seeded into 96-well plates and treated at 8 points with 1:2 serial dilution of compounds. Cell viability was assessed and assayed for viability using CellTiter-Glo reagent (Promega) following the manufacturer's instructions. Plates were read using Tecan luminescence plate reader. Results were normalized to the viability of cells without compounds (control wells). The IC50 values were calculated using nonlinear regression algorithms in XCell software.

H146 cell line = test: CellTiter-Glo cell viability, H146; format: cell-based; conditions: Homo sapiens, NCI-H146; 72 h of treatment
Experimental: as §1

BCL-2/BAX complex = BCL-2/BAX complex (Homo sapiens, UniProt P10415); test: Co-immunoprecipitation in BCL-2-overexpressing HeLa cells; format: cell-based; conditions: 2 h
[1] = test system: caspase-3 activity in RS4;11 tumor xenografts; test: Caspase-3 activity in RS4;11 tumor xenografts; format: in vivo; conditions: 100 mg/kg single oral gavage, 16 h post dosing, SCID mice
Experimental: Body weights were recorded and tumors were measured with digital calipers twice to three times a week. Tumor volume was calculated using the formula: length × width^2/2. Percent changes in body weights was calculated as (BWcurrent - BWinitial)/(BWinitial) × 100. Data is presented as percent body weight change from the day of treatment initiation. When tumors reached approximately 200 mm^3 for efficacy studies or 300 mm^3 for pharmacodynamic studies, mice were randomized. […] Mice were treated via oral gavage at 10 ml/kg with the doses and schedules described in the figure. For pharmacodynamic studies, blood and tumors were removed 16 h post dosing and immediately snap-frozen. Total proteins were extracted from the tumors and caspase-3 activity was assessed in triplicate using CaspACE® Assay System (Promega). Platelet cell counts were determined 16 hours post dosing using Coulter AcT diff (Beckman).

platelets = test: Platelet counts in RS4;11-bearing mice; format: in vivo; conditions: 100 mg/kg single oral dose, 16 h post dosing
Experimental: (§2) When tumors reached approximately 200 mm^3 for efficacy studies or 300 mm^3 for pharmacodynamic studies, mice were randomized. […] Mice were treated via oral gavage at 10 ml/kg with the doses and schedules described in the figure.
For pharmacodynamic studies, blood and tumors were removed 16 h post dosing and immediately snap-frozen. Total proteins were extracted from the tumors and caspase-3 activity was assessed in triplicate using CaspACE® Assay System (Promega). Platelet cell counts were determined 16 hours post dosing using Coulter AcT diff (Beckman).

BCL-XL/BAX complex = BCL-XL/BAX complex (Homo sapiens, UniProt Q07817); test: Co-immunoprecipitation in BCL-XL-overexpressing HeLa cells; conditions: 2 h
Experimental: Effecten reagent (Qiagen), with 3xFlag-tagged BCL-XL
24 h later, transfected Hela and RS4;11
were put under neomycin selection (800 µg/ml, Invitrogen) were then subjected to immunoprecipitation with anti-

Toledo xenograft = Toledo xenograft efficacy; format: in vivo, mice; conditions: 200 mg/kg oral five times a week for 3 weeks, day 21
Experimental: Experiments were performed in SCID/beige female mice from Charles River Laboratories, Massachusetts, USA. Animals, approximately 7-8 weeks of age at the start of the treatment were allowed to acclimate in animal facility with access to food and water ad libitum for 3 days prior to manipulation. Animals were handled in accordance with IACUC regulations and guidelines for experiments performed in the USA and with European and French regulation for the protection of vertebrate animals for experiments performed in France. Animal well-being and behavior, including grooming and ambulation were monitored at least once a day. General health of mice was monitored and mortality recorded daily. Any moribund animals were sacrificed.
RS4;11 Acute Lymphoblastic Leukemia cell lines was obtained from ATCC. Toledo (Diffuse Large B-Cell Lymphoma) human cell lines were obtained internally through Bioresources and the Novartis-Cancer Cell Line Encyclopedia. Cells were free of Mycoplasma and murine viral contamination in the IMPACT VIII PCR assay panel (IDEXX RADIL, IDEXX laboratories INC, Westbrook, ME, USA). Cells used for subcutaneous implantation were cultured in RPMI plus 10% FBS at 37° C in a humidified atmosphere containing 5% carbon dioxide). […] Cells were resuspended in a 1:1 mixture of cold DPBS (Dulbecco's Phosphate-Buffered Saline) and Matrigel™ (Becton-Dickinson #354234) at a concentration of 3 × 10^7 cells/ml for Toledo cells, and of 1 × 10^7 cells/ml for RS4;11 cells.
For each experiment, female SCID/beige mice were implanted subcutaneously (right axillary region) with 3 × 10^6 Toledo or RS4;11 (1 × 10^6 cells for efficacy studies and 1 × 10^7 cells for pharmacodynamics studies) suspended in 1:1 mixture of cold DPBS and Matrigel™ in a total volume of 100 μl. Body weights were recorded and tumors were measured with digital calipers twice to three times a week. Tumor volume was calculated using the formula: length × width^2/2. Percent changes in body weights was calculated as (BWcurrent - BWinitial)/(BWinitial) × 100. Data is presented as percent body weight change from the day of treatment initiation.
as §2
For efficacy studies, percent treatment/control (T/C) values were calculated using the following formula: %T/C = 100 × ΔT/ΔC if ΔT > 0. Regression = 100 × ΔT/Tinitial if ΔT < 0 where: T = mean tumor burden of the drug-treated group on the final day of the study; ΔT = mean tumor burden of the drug-treated group on the final day of the study – mean tumor burden of the drug-treated group on initial day of dosing; Tinitial = mean tumor burden of the drug-treated group on initial day of dosing; C = mean tumor burden of the control group on the final day of the study; and ΔC = mean tumor burden of the control group on the final day of the study – mean tumor burden of the control group on initial day of dosing. If the tumor volume was less than 14 mm^3 for more than 3 consecutive measurements, animals were considered in complete regression (CR).

BFL-1 = biological target: T1, BFL-1 (Homo sapiens, UniProt Q16548); test: Fluorescence polarization (FP) with Fluorescein-PUMA, BFL-1; conditions: at 3E-05 M
T1 sequence (Q16548 1-175): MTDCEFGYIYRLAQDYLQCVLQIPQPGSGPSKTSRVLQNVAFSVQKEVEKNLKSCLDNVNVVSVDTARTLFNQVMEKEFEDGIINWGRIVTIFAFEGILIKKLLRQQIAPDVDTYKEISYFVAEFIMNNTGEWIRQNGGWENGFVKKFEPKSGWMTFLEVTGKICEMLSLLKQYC
Experimental: Final concentrations of MCL-1, BFL-1, BCL-2 and BCL-XL proteins were 10, 10, 10 and 20 nM respectively. The assay plates were incubated for 2 hours at room temperature and the FP was measured on a Synergy 2 reader (Ex. 528 nm, Em. 640 nm, Cut-off 510 nm). The binding of increasing doses of compound was expressed as a percentage reduction in mP compared to the window established between ‘DMSO only’ and ‘total inhibition’ control (30 μM PUMA). […] The KI was subsequently calculated as previously described [42].

[2] = test system: BCL-2-dependent FL5.12 cells; test: Apoptosis (annexin V/PI) in FL5.12 cells expressing BCL-2 upon IL-3 withdrawal; format: cell-based, murine; conditions: 24 h upon IL-3 withdrawal
[3] = test system: isolated platelets from healthy volunteers; test: Apoptosis (annexin V) in isolated platelets; format: cell-based; conditions: Homo sapiens, Platelet; 4 healthy donors, 3 h; read-out: EC50 apoptosis (PS+) in isolated platelets
Experimental: Peripheral blood samples from CLL patients were obtained with informed patient consent and local ethical committee approval (UHL-09723). […] Interphase fluorescence in situ hybridization (FISH) was performed for detection of 17p13 deletion. Mantle cell lymphoma (MCL) primary cells were obtained after informed consent from MCL patients treated at the department of clinical hematology from the University Hospital of Nantes, France. Peripheral MCL cells from blood or pleural effusion, were purified after Ficoll-Hypaque separation with immuno-magnetic anti-CD19 beads (Miltenyi, Paris, France). Primary cells were cultured in RPMI-1640 supplemented with 10% FCS and 2 mM glutamine. Human platelets were isolated from citrate blood donated by healthy volunteers. Washed platelets were cultured in Hepes-buffered saline (HBS, 10 mM Hepes, 150 mM NaCl, 5 mM KCl, 1 mM MgSO4, pH 7.4).
EC50 values were calculated using GraphPadPrism (non-linear fit, sigmoidal dose response, variable slope). […] Cell death was assessed in the CD19+ primary MCL cells by annexinV-FITC staining combined with an analysis of altered cellular morphology (lower FCS). Fluorescence was analyzed on FACSCalibur.

[4] = test system: BCL-XL-dependent FL5.12 cells; test: Apoptosis (annexin V/PI) in FL5.12 cells expressing BCL-XL upon IL-3 withdrawal; conditions: 24 h upon IL-3 withdrawal

Chain of BCL-2 (P10415 whole entry): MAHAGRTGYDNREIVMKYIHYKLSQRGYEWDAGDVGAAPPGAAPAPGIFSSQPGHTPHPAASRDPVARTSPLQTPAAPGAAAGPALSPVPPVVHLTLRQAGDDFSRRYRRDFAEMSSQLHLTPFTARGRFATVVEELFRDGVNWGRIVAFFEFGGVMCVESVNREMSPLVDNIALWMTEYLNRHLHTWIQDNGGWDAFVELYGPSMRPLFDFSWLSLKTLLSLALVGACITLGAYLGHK
Chain of MCL-1 (Q07820 whole entry): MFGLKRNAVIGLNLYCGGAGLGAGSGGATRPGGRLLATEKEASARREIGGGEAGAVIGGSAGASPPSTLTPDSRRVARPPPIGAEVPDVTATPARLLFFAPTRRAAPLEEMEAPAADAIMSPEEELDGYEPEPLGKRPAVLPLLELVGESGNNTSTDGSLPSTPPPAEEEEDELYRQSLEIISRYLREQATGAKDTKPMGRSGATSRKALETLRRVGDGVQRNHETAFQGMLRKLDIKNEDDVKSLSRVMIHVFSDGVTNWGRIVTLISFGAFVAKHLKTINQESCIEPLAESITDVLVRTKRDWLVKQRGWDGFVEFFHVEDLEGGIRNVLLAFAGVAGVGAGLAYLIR
Chain of BCL-2/BAX complex (P10415 whole entry, one chain of several): as the sequence (P10415 whole entry) above
Chain of BCL-XL/BAX complex (Q07817 whole entry, one chain of several): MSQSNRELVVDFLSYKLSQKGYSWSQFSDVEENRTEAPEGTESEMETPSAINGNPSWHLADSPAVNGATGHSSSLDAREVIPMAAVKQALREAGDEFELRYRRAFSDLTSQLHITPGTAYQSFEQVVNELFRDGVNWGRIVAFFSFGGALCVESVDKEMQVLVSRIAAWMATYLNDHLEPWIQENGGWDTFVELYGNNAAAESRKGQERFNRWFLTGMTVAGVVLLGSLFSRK

| Compound | FP_MCL-1, % of inhibition at the maximal tested concentration (MCL-1; at 10E-06 M) [%@10E-06] | N (sites), stoichiometry (BCL-2) [sites] | ∆H (enthalpy delta) (BCL-2) | IC50 (RS4;11 cell line) [nM] | IC50 (H146 cell line) [nM] | effect on BCL-2/BAX complex in BCL-2-overexpressing HeLa cells (BCL-2/BAX complex) | caspase-3 activity in tumor, times higher than in vehicle-treated animals [1] | platelet counts in vivo (platelets) | effect on BCL-XL/BAX complex in BCL-XL-overexpressing HeLa cells (BCL-XL/BAX complex) | FP_MCL-1, % of inhibition at the maximal tested concentration (MCL-1; at 30E-06 M) | % T/C (Toledo xenograft) [% T/C] | Mean TV change (Toledo xenograft; mean ± s.e.m.) [mm3] | FP_BFL-1, % of inhibition at the maximal tested concentration (BFL-1) [%@3E-05] | apoptosis induction (PS+ cells) in BCL-2-dependent FL5.12 cells [2] | EC50 [3] [nM] | apoptosis induction (PS+ cells) in BCL-XL-dependent FL5.12 cells [4] |
| --- | --- | --- | --- | --- | --- | --- | --- | --- | --- | --- | --- | --- | --- | --- | --- | --- |
| CC1(C)CCC(c2ccc(Cl)cc2)=C(CN2CCN(c3ccc(C(=O)NS(=O)(=O)c4ccc(N[C@H](CCN5CCOCC5)CSc5ccccc5)c(S(=O)(=O)C(F)(F)F)c4)cc3)CC2)C1 [ABT-263, reference compound] | 9.4 | 0.8 | –13.1 kcal/mol | 41.5 | 49.7 | disrupt both BCL-2/BAX and BCL-XL/BAX complexes | about 20 times | strong decrease of platelet counts | disrupt both BCL-2/BAX and BCL-XL/BAX complexes |  |  |  |  |  |  |  |
| CC1(C)CCC(CN2CCN(c3ccc(C(=O)NS(=O)(=O)c4ccc(NCC5CCOCC5)c([N+](=O)[O-])c4)c(Oc4cnc5[nH]ccc5c4)c3)CC2)=C(c2ccc(Cl)cc2)C1 [ABT-199, reference compound] |  | 1.1 | –12.1 kcal/mol |  |  |  |  |  |  | 14.9% and 11.8% | 6 | 104.44 ± 70.31 | 6.4 |  |  |  |
| CN(C)CC[C@H](CSc1ccccc1)Nc1ccc(S(=O)(=O)NC(=O)c2ccc(N3CCN(Cc4ccccc4-c4ccc(Cl)cc4)CC3)cc2)cc1[N+](=O)[O-] [ABT-737, reference compound] |  |  |  |  |  |  |  |  |  |  |  |  |  | efficiently induced apoptosis | 30 | efficiently induced apoptosis |
